Reference: patent US5234949A (Academic Pharmaceuticals, Inc., priority 1992, dated 1993)
Where two headings read alike, the source gives them in different places.

Assays:
Coronary Occlusion (Rat) = assay: Antiarrhythmic effects following coronary occlusion; assay type: in vivo
[1] = administered intravenously; cited from earlier work
dog = conditions: in vivo; cited from earlier work

| Compound | dose-dependent suppression of arrhythmias vs saline control group (Coronary Occlusion (Rat)) | onset of action; hemodynamic and electrophysiological effect [1] | solution behaviour (0.05 to 0.1M acetate buffer, pH 3.5 to 3.8, about 25 to 50 mg/ml, room temperature, extended period) | solution behaviour (0.2M acetate buffer, same pH range, after cooling) | solution behaviour (pH above 4.0, room temperature) | solution behaviour (phosphate buffer, 0.1M, on cooling) | blood pressure effect (dog) | cardiac effect (dog) |
| --- | --- | --- | --- | --- | --- | --- | --- | --- |
| CCCCc1oc2ccccc2c1C(=O)c1cc(I)c(OCCN(CC)CC)c(I)c1 [Amiodarone, 2-n-butyl-3-(3,5-diiodo-4-β-N-diethylaminoethoxybenzoyl) benzofuran] | significantly different than that seen with the saline control group | rapid onset of action causing profound hemodynamic and electrophysiological effect | remains in solution | formed a gel after cooling | a gel formed at room temperature | gel formation occurred at all pH's | – | – |
| Tween-80 | – | – | – | – | – | – | causes hypotension | potent cardiac depressant |
